From patent US9890407B2, “Method for synthesizing cellulose in vitro” (University of Virginia Patent Foundation, priority 2013, dated 2018)

Test system: Rs BcsA-B complex
Test: Cellulose synthase sedimentation assay (3H-labeled water-insoluble cellulose, scintillation counting)
Assay type: biochemical, Rhodobacter sphaeroides
Conditions: increasing nucleotide concentrations, 0.5 mM UDP-Glc, PL-reconstituted BcsA-B
Method: (FIG. 4A) Enzyme-coupled cellulose synthesis assays were performed as described in FIG. 3 in the absence or presence of 0.1 mg/ml E. coli BesZ. […] Inset: Radioactive sedimentation assay performed with ND-reconstituted BcsA-B synthesizing cellulose in the absence or presence of BcsZ. […] The obtained product is quantified relative to the polymer formed in the absence of any nucleoside diphosphate.
FIG. 9A-9B (also referred to as Example 1, Supplementary FIG. 3): Cation selectivity and pH optimum of cellulose synthase. (FIG. 9A) Cellulose synthesis reactions were performed in the presence of 20 mM of the indicated cations or in the absence of any additional divalent cations with and without addition of 20 mM EDTA. The activities are shown relative to the activity in the presence of magnesium. […] All activity assays were performed for 45 min at 37° C. with 1 μM PLs-reconstituted. Rs BcsA-B and by quantifying the accumulation of ^3H-labeled water insoluble cellulose as described.
Following incubation at 37° C. for 45 min, the polymerization reaction was terminated by addition of 2% SDS and the water-insoluble polymer was pelleted by centrifugation at 15,000 rpm at room temperature (RT). The obtained pellet was resuspended in 20 μL 50 mM Tris pH 7.5, 0.1 M NaCl and spotted at the origin of a descending Whatman-2MM chromatography paper, which was developed in an aqueous solution of 60% ethanol. For enzymatic degradation, the pellet was resuspended in 20 μL 50 mM sodium acetate pH 4.5 and 100 mM NaCl and was digested with 0.1 mg/ml of endo-β-1,4- or endo-β-1,3 glucanase from Aspergillus niger (TCI) or Trichoderma sp. (Megazyme), respectively. Following paper chromatography, the high molecular weight polymer retained at the origin was quantified by scintillation counting.
Following synthesis, the reactions were treated as described above.

SMILES	inhibition of cellulose synthesis by nucleoside diphosphates
Nc1ncnc2c1ncn2[C@@H]1O[C@H](COP(=O)(O)OP(=O)(O)O)[C@@H](O)[C@H]1O [adenosine-diphosphate]	do not inhibit
Nc1nc2c(ncn2[C@@H]2O[C@H](COP(=O)(O)OP(=O)(O)O)[C@@H](O)[C@H]2O)c(=O)[nH]1 [guanosine-diphosphate]	do not inhibit
